Measurements reported in PMC8298602, “14-3-3-protein regulates Nedd4-2 by modulating interactions between HECT and WW domains” (Communications Biology, 2021).
Non-standard residues stand in square brackets, D forms with d. Residues, ends and D or L forms follow the SMILES beside them. *: point of attachment. FITC = O=C1OC2(c3ccc(O)cc3Oc3cc(O)ccc32)c2ccc(NC(=S)*)cc21; pT = C[C@@H](OP(=O)(O)O)[C@H](N)C(=O)O; pS = N[C@@H](COP(=O)(O)O)C(=O)O

Tests used:
Format in all cases: binding
Conditions in all cases: 14-3-3 titrated 80 to 0.003418, three replicates
14-3-3η = target: T1, 14-3-3η (Homo sapiens, UniProt Q04917); experiment: fluorescence polarization (FP) with FITC-labeled phosphopeptides, 14-3-3η
T1 sequence (Q04917 1-246): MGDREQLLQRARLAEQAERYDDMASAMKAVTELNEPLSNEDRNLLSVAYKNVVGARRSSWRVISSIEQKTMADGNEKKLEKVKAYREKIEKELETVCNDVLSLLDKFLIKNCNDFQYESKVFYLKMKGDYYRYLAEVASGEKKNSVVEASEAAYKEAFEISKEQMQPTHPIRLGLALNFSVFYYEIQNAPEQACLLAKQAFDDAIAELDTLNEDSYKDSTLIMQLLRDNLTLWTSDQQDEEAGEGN
Procedure: (§1) Fig. 4 14-3-3 isoform binding specificity of Nedd4-2 phosphomotifs. Binding of FITC-labeled phosphopeptides with 14-3-3 binding motifs of Nedd4-2 (pSer^342, pThr^367 or pSer^448) to all human 14-3-3 isoforms was characterized by FP titrations. The binding affinities of these peptides were determined by fitting FP data to a one-site binding model. The corresponding sequences of these peptides are shown at the top. Background polarization was subtracted from all values. Results are expressed as mean ± SD (n = 3). Error bars are not visible if they are smaller than the size of the symbol.
(§2) The FP assay was performed using a CLARIOstar microplate reader (BMG Labtech, […]) on 384-well black low-volume flat-bottom plates (Corning, New York, USA) in a buffer containing 10 mM HEPES (pH 7.4), 150 mM NaCl, 0.1% (v/v) Tween 20 and 0.1% (w/v) BSA. […] The excitation and emission wavelengths were 482 nm and 530 nm, respectively. The KD values were determined as the mean of three independent measurements using GraphPad Prism version 8.0.1 for Windows, GraphPad Software, La Jolla California USA, www.graphpad.com.
(§3) Results from the FP assay (Fig. 4) and immunoblot (Supplementary Fig. S1) are represented as means ± SD from three replicates as indicated in the figure legend. Statistical analysis for the data from immunoblot were performed using Graph-Pad Prism 8.4. Student’s t-test was used for comparison of relative changes of samples with and without 14-3-3η at selected timepoints (ns, non-significant P > 0.05; *, P < 0.05).

14-3-3σ = target: T2, 14-3-3σ (Homo sapiens, UniProt P31947); experiment: fluorescence polarization (FP) with FITC-labeled phosphopeptides, 14-3-3σ
T2 sequence (P31947 1-248): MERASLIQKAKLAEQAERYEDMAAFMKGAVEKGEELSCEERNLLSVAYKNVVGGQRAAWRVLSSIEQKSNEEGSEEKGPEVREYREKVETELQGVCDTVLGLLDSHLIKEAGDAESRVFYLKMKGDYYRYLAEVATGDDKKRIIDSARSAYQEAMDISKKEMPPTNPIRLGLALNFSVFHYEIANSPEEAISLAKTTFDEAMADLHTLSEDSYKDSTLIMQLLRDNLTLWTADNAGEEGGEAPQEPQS
Procedure: as §1, §2, §3

14-3-3τ = target: T3, 14-3-3τ (Homo sapiens, UniProt P27348); experiment: fluorescence polarization (FP) with FITC-labeled phosphopeptides, 14-3-3τ
T3 sequence (P27348 1-245): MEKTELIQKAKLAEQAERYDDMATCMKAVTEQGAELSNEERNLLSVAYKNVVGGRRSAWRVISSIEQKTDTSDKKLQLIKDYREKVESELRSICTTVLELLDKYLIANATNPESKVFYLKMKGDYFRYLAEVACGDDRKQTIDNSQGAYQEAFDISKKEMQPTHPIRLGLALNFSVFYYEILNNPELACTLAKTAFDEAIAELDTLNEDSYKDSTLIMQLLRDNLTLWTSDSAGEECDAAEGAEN
Procedure: as §1, §2, §3

14-3-3ε = target: T4, 14-3-3ε (Homo sapiens, UniProt P62258); experiment: fluorescence polarization (FP) with FITC-labeled phosphopeptides, 14-3-3ε
T4 sequence (P62258 1-255): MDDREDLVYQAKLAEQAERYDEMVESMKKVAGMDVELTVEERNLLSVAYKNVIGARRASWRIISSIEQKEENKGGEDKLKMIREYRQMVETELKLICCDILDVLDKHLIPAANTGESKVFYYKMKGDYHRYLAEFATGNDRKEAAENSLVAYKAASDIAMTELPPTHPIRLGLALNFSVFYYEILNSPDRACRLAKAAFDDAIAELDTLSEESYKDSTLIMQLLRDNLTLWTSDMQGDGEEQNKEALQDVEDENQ
Procedure: as §1, §2, §3

14-3-3ζ = target: T5, 14-3-3ζ (Homo sapiens, UniProt P63104); experiment: fluorescence polarization (FP) with FITC-labeled phosphopeptides, 14-3-3ζ
T5 sequence (P63104 1-245): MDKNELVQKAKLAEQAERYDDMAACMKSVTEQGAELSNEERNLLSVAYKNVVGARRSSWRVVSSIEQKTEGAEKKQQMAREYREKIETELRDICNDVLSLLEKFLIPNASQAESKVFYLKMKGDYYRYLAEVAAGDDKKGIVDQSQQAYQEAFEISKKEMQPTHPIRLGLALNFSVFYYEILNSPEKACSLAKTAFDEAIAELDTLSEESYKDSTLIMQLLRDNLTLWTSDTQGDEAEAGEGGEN
Procedure: as §1, §2, §3

14-3-3β = target: T6, 14-3-3β (Homo sapiens, UniProt P31946); experiment: fluorescence polarization (FP) with FITC-labeled phosphopeptides, 14-3-3β
T6 sequence (P31946 1-246): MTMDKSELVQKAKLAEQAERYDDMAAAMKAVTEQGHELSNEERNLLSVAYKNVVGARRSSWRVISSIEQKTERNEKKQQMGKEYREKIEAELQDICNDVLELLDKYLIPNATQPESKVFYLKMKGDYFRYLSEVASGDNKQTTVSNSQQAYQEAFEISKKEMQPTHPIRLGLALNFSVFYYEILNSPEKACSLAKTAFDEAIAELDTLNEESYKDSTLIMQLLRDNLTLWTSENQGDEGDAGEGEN
Procedure: as §1, §2, §3

14-3-3γ = target: T7, 14-3-3γ (Homo sapiens, UniProt P61981); experiment: fluorescence polarization (FP) with FITC-labeled phosphopeptides, 14-3-3γ
T7 sequence (P61981 1-247): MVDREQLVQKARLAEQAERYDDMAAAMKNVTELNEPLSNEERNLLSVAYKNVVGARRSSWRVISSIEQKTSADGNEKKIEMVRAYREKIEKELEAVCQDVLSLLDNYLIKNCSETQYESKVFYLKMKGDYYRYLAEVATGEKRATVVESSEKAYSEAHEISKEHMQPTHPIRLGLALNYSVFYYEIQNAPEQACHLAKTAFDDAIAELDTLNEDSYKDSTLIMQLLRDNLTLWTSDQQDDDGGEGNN
Procedure: as §1, §2, §3

| Bmax (One site -- Specific binding, best-fit value) (14-3-3η) | Bmax (One site -- Specific binding, best-fit value) (14-3-3σ) | Bmax (One site -- Specific binding, best-fit value) (14-3-3τ) | Bmax (One site -- Specific binding, best-fit value) (14-3-3ε) | Bmax (One site -- Specific binding, best-fit value) (14-3-3ζ) | Bmax (One site -- Specific binding, best-fit value) (14-3-3β) | Bmax (One site -- Specific binding, best-fit value) (14-3-3γ) | SMILES |
| --- | --- | --- | --- | --- | --- | --- | --- |
| 0.164 | 0.9999 | 0.1186 | 0.261 | 0.1453 | 0.1665 | 0.2226 | CC(C)C[C@H](NC(=S)Nc1ccc2c(c1)C(=O)OC21c2ccc(O)cc2Oc2cc(O)ccc21)C(=O)N[C@@H](CCCNC(=N)N)C(=O)N[C@@H](CO)C(=O)N[C@@H](CS)C(=O)N[C@@H](COP(=O)(O)O)C(=O)N[C@H](C(=O)N[C@H](C(=O)N[C@@H](CC(=O)O)C(=O)N[C@@H](C)C(=O)N[C@H](C(=O)O)C(C)C)[C@@H](C)O)C(C)C [Nedd4-2 peptide pS342] ({FITC}-LRSC[pS]VTDAV-OH; C-terminus assumed) |
| 0.8968 | 0.7456 | 0.8496 | 0.7529 | 0.9954 | 1 | 0.9424 | CC(C)C[C@H](NC(=O)[C@H](CO)NC(=O)[C@H](CCCNC(=N)N)NC(=O)[C@@H]1CCCN1C(=S)Nc1ccc2c(c1)C(=O)OC21c2ccc(O)cc2Oc2cc(O)ccc21)C(=O)N[C@@H](COP(=O)(O)O)C(=O)N[C@@H](CO)C(=O)N1CCC[C@H]1C(=O)N[C@H](C(=O)N[C@H](C(=O)N[C@H](C(=O)O)[C@@H](C)O)C(C)C)[C@@H](C)O [Nedd4-2 peptide pS448] ({FITC}-PRSL[pS]SPTVT-OH; C-terminus assumed) |

| SMILES | Bmax (One site -- Specific binding, best-fit value) (14-3-3η) | Bmax (One site -- Specific binding, best-fit value) (14-3-3σ) | Bmax (One site -- Specific binding, best-fit value) (14-3-3τ) | Bmax (One site -- Specific binding, best-fit value) (14-3-3ε) | Bmax (One site -- Specific binding, best-fit value) (14-3-3ζ) | Bmax (One site -- Specific binding, best-fit value) (14-3-3β) | Bmax (One site -- Specific binding, best-fit value) (14-3-3γ) |
| --- | --- | --- | --- | --- | --- | --- | --- |
| CC(C)[C@H](NC(=O)[C@@H](NC(=O)[C@H](CO)NC(=O)[C@H](CO)NC(=O)[C@H](CCCNC(=N)N)NC(=O)[C@H](C)NC(=S)Nc1ccc2c(c1)C(=O)OC21c2ccc(O)cc2Oc2cc(O)ccc21)[C@@H](C)OP(=O)(O)O)C(=O)N[C@H](C(=O)NCC(=O)NCC(=O)N[C@@H](CCC(=O)O)C(=O)O)[C@@H](C)O [Nedd4-2 peptide pT367] ({FITC}-ARSS[pT]VTGGE-OH; C-terminus assumed) | 0.8265 | 0.1205 | 0.7863 | 0.3092 | 1.002 | 0.9561 | 0.9894 |
